Patent US4353919A, “Analgesic and antipyretic pharmaceutical compositions containing a benzothiazol-2(3H)-one” (Dr. Karl Thomae Gesellschaft mit beschrankter Haftung, priority 1980, dated 1982)

Key:
Type in all cases: in vivo
[1] = tested on: body temperature of the rat; assay: Effect on the body temperature of the rat (antipyretic activity); details: Chbb:THOM-rats, oral (esophageal tube), dose decreasing rectal body temperature by 1.5° C.
Experimental: The temperature-lowering activity, i.e. antipyretic activity, was tested by the observation of the temperature curve given by rectally measured body temperatures of partially immobilized Chbb:THOM-rats having body weights of between 125 and 150 grams. The body temperatures were measured by thermocouples inserted into rectums. The test substances were administered as a trituration in a 1% methyl cellulose in portions of 1.0 ml/100 gm of animal using an esophageal tube.
From the values for the average maximum decline of temperature, which were gained after the administration of the different doses of the test substance, and after a linear regression analysis according to LINDER, an ED-1.5° C. was calculated with the confidence limits according to FIELLER as the dose which decreases the body temperature by 1.5° C.

heat pain of the mouse = assay: Effect on the heat sensitivity of the mouse (hot plate, 52° C.); details: male Chbb:NMRI (SPF)-mice, oral (esophageal tube), dose increasing time of reaction by 100%
Experimental: The test performed according to a modification of the method described by CHEN and BECKMAN [Science, 113, 631 (1951)] in male Chbb:NMRI (SPF)-mice with an average weight of 20 grams.
The test substances were administered as trituration in 1% methyl cellulose (0.1 ml/10 gm of mouse) by means of an esophageal tube. Before treatment with the test substance, the animals were twice put on the hot plate at an interval of 30 minutes, whereby their individual times of reaction were measured. After treatment with a test substance, the times of reaction of the animals were again measured in an interval of 30 minutes.
From the average maximum increase of the time of reaction obtained after treatment with different doses, and after linear regression analysis according to LINDER, an ED100 dose with the confidence limits according to FIELLER was calculated. The ED100 dose is one which increased the time of reaction by 100%.

[2] = tested on: inflammation pain of the rat; assay: Effect on the inflammation pain of the rat (Randall-Selitto, yeast-injected paw); details: male Chbb:THOM-rats, oral (esophageal tube), dose raising pain threshold by 50% vs controls
Experimental: The test arrangement corresponded to that indicated by RANDALL-SELITTO [Arch. Int. Pharmacodyn. 111, 409 (1957)]. Male Chbb:THOM-rats having body weights of from 100 to 130 grams received a subplantar injection of 0.1 ml of a 5% suspension of yeast cells in 5.55% glucose solution in a rear paw. At 11/2 and 21/4 hours, respectively, after injection of the phlogistic, the animals received various doses of the test substance as a trituration in 1% methyl cellulose (1 ml/100 g of animal) through an esophageal tube. Control animals received corresponding volumes of the vehicle.
Ninety and forty-five minutes, respectively, after application of the test substance (that is, three hours after the subplantar injection of the yeast suspension), the threshold pain was determined in the rat in terms of the […] of bearing pressure on a paw, based on the weight of the animals.
From the pain threshold, measured according to the different doses of the test substance, and with the linear regression analysis according to LINDER [Statistische Methoden, 4th ed., pp. 148-162, Birkhauser, Basel, 1964], and ED50 dose with the confidence limits according to FIELLER [Quart. J. Pharm. Pharmacol., 17, 117 (1944)] was determined. The ED50 dose is one in which the pain threshold rises by 50%, as compared to the controls.

Acute toxicity in mice = details: mouse, in vivo; Chbb:NMRI (SPF)-mice of both sexes, oral (esophageal tube), deaths within 14 days
Experimental: (§1) The acute toxicity was determined in Chbb:NMRI (SPF)-mice of both sexes, having an average body weight of 20 gm. The test compounds were administered as a trituration in 1% methyl cellulose (0.5 ml/10 gm of animal) by means of an esophageal tube. The calculation of the LD50 values was effected according to the method of LITCHFIELD and WILCOXON [J. Pharmacol. Exp. Ther. 96, 99 (1949)], based on the percentage of animals which died within 14 days after administration of different doses.

mice = assay: Acute toxicity in mice; details: oral, mice, 14 days
Experimental: as §1

[3] = 0.75 h, After Forty-five Minutes

SMILES | ED (-1.5 C) [1] [mg/kg] | ED100 (heat pain of the mouse) [mg/kg] | ED50 [2, 3] [mg/kg] | ED50 ([2]; 1.5 h, After Ninety Minutes) [mg/kg] | LD50 at 336 h (Acute toxicity in mice) [mg/kg] | survival of animals after administration of this dose (mice; 10000 mg/kg (footnote * of Table 5)) | animals died after administration of this dose (mice; 8000 mg/kg (footnote ** of Table 5))
COc1ccc2sc(=O)[nH]c2c1 [A, 5-methoxy-benzothiazol-2(3H)-one] | 58 | 218 | 90 | 150 | 1600 |  | 
O=c1[nH]c2ccc(F)cc2s1 [B, 6-fluoro-benzothiazol-2(3H)-one] | 83 | 165 | 121 | 76 | 1650 |  | 
O=c1[nH]c2cccc(Cl)c2s1 [C, 7-chloro-benzothiazol-2(3H)-one] |  |  | 106 | 105 | 10000 | all 10 animals survived | 
O=c1[nH]c2ccc(Cl)cc2s1 [D, 6-chloro-benzothiazol-2(3H)-one] | 103 |  | 175 | 129 |  |  | 
COc1cc2[nH]c(=O)sc2cc1OC [E, 5,6-dimethoxy-benzothiazol-2(3H)-one] | 29 | 92 | 43 | 40 |  |  | 
Cc1cccc2sc(=O)[nH]c12 [F, 4-methyl-benzothiazol-2(3H)-one] | 118 | 113 | 174 | 202 | 8000 |  | 4 out of 20 animals died
Cc1ccc2sc(=O)[nH]c2c1 [G, 5-methyl-benzothiazol-2(3H)-one] | 37 | 178 | 103 | 97 | 2650 |  | 
O=c1[nH]c2c(Cl)cccc2s1 [H, 4-chloro-benzothiazol-2(3H)-one] | 16 | 125 | 24 | 23 |  |  | 
